In the supplement of paper PMC10627819:
Values after ≈ are worked out from the molar mass of the structure shown.

Tests used:
S. pneumoniae D39V [1] = test: fitness (endpoint OD595 vs no drug) (fraction); higher = more growth
In short: (§1)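 Bacterial fitness was scored as optical density at the stationary-phase transition relative to the robust mean of no-drug control wells. Scores are capped at 1. The growth data were OD595 readings every 30 min for 14 h at 37 °C, background-subtracted against the first reading, from 384-well plates inoculated at OD595 0.01 in TSB, LB Lennox or CY.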

S. aureus DSM 20231 [2] = test: as above
In short: as §1

B. subtilis 168 [3] = test: as above
In short: as §1

S. aureus Newman [4] = test: as above
In short: as §1

S. pneumoniae D39V [5] = test: Bliss interaction score (quartile over a dose matrix) (fitness difference); higher = more antagonism (negative = synergy)
In short: (§2)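 Each plate was normalised to the robust mean of its own no-drug wells, using OD595 at entry into stationary phase, with values capped at 1. This normalised growth is the fitness value. The Bliss score is the difference between observed and product-expected fitness, with single-drug fitness inferred from the combination data and quartiles taken over technical, biological and donor/recipient replicates.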

S. aureus DSM 20231 [6] = test: as above
In short: as §2

B. subtilis 168 [7] = test: as above
In short: as §2

S. aureus Newman [8] = test: as above
In short: as §2

S. pneumoniae D39V [9] = system: S. pneumoniae D39V
S. aureus DSM 20231 [10] = system: S. aureus DSM 20231
B. subtilis 168 [11] = system: B. subtilis 168
S. aureus Newman [12] = system: S. aureus Newman
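For Bliss interaction score (quartile over a dose matrix) in this document: first quartile when negative (synergy) and third quartile when positive (antagonism).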

COc1c(N2C[C@@H]3CCCN[C@@H]3C2)c(F)cc2c(=O)c(C(=O)O)cn(C3CC3)c12 [Moxifloxacin] + Cc1onc(-c2ccccc2)c1C(=O)N[C@@H]1C(=O)N2[C@@H]1SC(C)(C)[C@@H]2C(=O)O [Oxacillin]
Conditions | fitness
B. subtilis 168 [3], first compound 0.0312 µg/mL, partner 0.0078 µg/mL | 0.064
B. subtilis 168 [3], first compound 0.0312 µg/mL, partner 0.0155 µg/mL | 0.0573
B. subtilis 168 [3], first compound 0.0312 µg/mL, partner 0.031 µg/mL | 0.0475
B. subtilis 168 [3], first compound 0.0625 µg/mL, partner 0.0078 µg/mL | 0.0466
B. subtilis 168 [3], first compound 0.0625 µg/mL, partner 0.0155 µg/mL | 0.037
B. subtilis 168 [3], first compound 0.0625 µg/mL, partner 0.031 µg/mL | 0.0491
B. subtilis 168 [3], first compound 0.125 µg/mL, partner 0.0078 µg/mL | 0.0548
B. subtilis 168 [3], first compound 0.125 µg/mL, partner 0.0155 µg/mL | 0.0482
B. subtilis 168 [3], first compound 0.125 µg/mL, partner 0.031 µg/mL | 0.0479
B. subtilis 168 [3], first compound 2 µg/mL, partner 0.002 µg/mL | 0.0356
B. subtilis 168 [3], first compound 2 µg/mL, partner 0.004 µg/mL | 0.0464
B. subtilis 168 [3], first compound 2 µg/mL, partner 0.008 µg/mL | 0.0465
B. subtilis 168 [3], first compound 4 µg/mL, partner 0.002 µg/mL | 0.0347
B. subtilis 168 [3], first compound 4 µg/mL, partner 0.004 µg/mL | 0.0433
B. subtilis 168 [3], first compound 4 µg/mL, partner 0.008 µg/mL | 0.0406
B. subtilis 168 [3], first compound 8 µg/mL, partner 0.002 µg/mL | 0.0147
B. subtilis 168 [3], first compound 8 µg/mL, partner 0.004 µg/mL | 0.021
B. subtilis 168 [3], first compound 8 µg/mL, partner 0.008 µg/mL | 0.0219
S. aureus DSM 20231 [2], first compound 0.0075 µg/mL, partner 0.0156 µg/mL | 0.665
S. aureus DSM 20231 [2], first compound 0.0075 µg/mL, partner 0.0312 µg/mL | 0.623
S. aureus DSM 20231 [2], first compound 0.0075 µg/mL, partner 0.0625 µg/mL | 0.483
S. aureus DSM 20231 [2], first compound 0.015 µg/mL, partner 0.0156 µg/mL | 0.621
S. aureus DSM 20231 [2], first compound 0.015 µg/mL, partner 0.0312 µg/mL | 0.576
S. aureus DSM 20231 [2], first compound 0.015 µg/mL, partner 0.0625 µg/mL | 0.475
S. aureus DSM 20231 [2], first compound 0.03 µg/mL, partner 0.0156 µg/mL | 0.561
S. aureus DSM 20231 [2], first compound 0.03 µg/mL, partner 0.0312 µg/mL | 0.527
S. aureus DSM 20231 [2], first compound 0.03 µg/mL, partner 0.0625 µg/mL | 0.417
S. aureus Newman [4], first compound 0.0075 µg/mL, partner 0.0156 µg/mL | 0.676
S. aureus Newman [4], first compound 0.0075 µg/mL, partner 0.0312 µg/mL | 0.633
S. aureus Newman [4], first compound 0.0075 µg/mL, partner 0.0625 µg/mL | 0.515
S. aureus Newman [4], first compound 0.015 µg/mL, partner 0.0156 µg/mL | 0.575
S. aureus Newman [4], first compound 0.015 µg/mL, partner 0.0312 µg/mL | 0.487
S. aureus Newman [4], first compound 0.015 µg/mL, partner 0.0625 µg/mL | 0.417
S. aureus Newman [4], first compound 0.03 µg/mL, partner 0.0156 µg/mL | 0.116
S. aureus Newman [4], first compound 0.03 µg/mL, partner 0.0312 µg/mL | 0.0437
S. aureus Newman [4], first compound 0.03 µg/mL, partner 0.0625 µg/mL | 0.0665
S. pneumoniae D39V [1], first compound 0.0037 µg/mL, partner 0.01 µg/mL | 0.885
S. pneumoniae D39V [1], first compound 0.0037 µg/mL, partner 0.02 µg/mL | 0.769
S. pneumoniae D39V [1], first compound 0.0037 µg/mL, partner 0.04 µg/mL | 0.191
S. pneumoniae D39V [1], first compound 0.005 µg/mL, partner 0.01 µg/mL | 0.991
S. pneumoniae D39V [1], first compound 0.005 µg/mL, partner 0.02 µg/mL | 1
S. pneumoniae D39V [1], first compound 0.0075 µg/mL, partner 0.01 µg/mL | 0.9
S. pneumoniae D39V [1], first compound 0.0075 µg/mL, partner 0.02 µg/mL | 0.784
S. pneumoniae D39V [1], first compound 0.0075 µg/mL, partner 0.04 µg/mL | 0.198
S. pneumoniae D39V [1], first compound 0.01 µg/mL, partner 0.01 µg/mL | 0.993
S. pneumoniae D39V [1], first compound 0.01 µg/mL, partner 0.02 µg/mL | 0.983
S. pneumoniae D39V [1], first compound 0.015 µg/mL, partner 0.01 µg/mL | 0.84
S. pneumoniae D39V [1], first compound 0.015 µg/mL, partner 0.02 µg/mL | 0.814
S. pneumoniae D39V [1], first compound 0.015 µg/mL, partner 0.04 µg/mL | 0.276
S. pneumoniae D39V [1], first compound 0.02 µg/mL, partner 0.01 µg/mL | 0.993
S. pneumoniae D39V [1], first compound 0.02 µg/mL, partner 0.02 µg/mL | 0.978

fitness, one replicate
Conditions | partner 0.0156 µg/mL | partner 0.0312 µg/mL | partner 0.0625 µg/mL | partner 0.075 µg/mL | partner 0.15 µg/mL | partner 0.3 µg/mL
B. subtilis 168 [3], first compound 0.0312 µg/mL | – | – | – | 0.0346 | 0.0314 | 0.0247
B. subtilis 168 [3], first compound 0.0625 µg/mL | – | – | – | 0.0324 | 0.0252 | 0.0441
B. subtilis 168 [3], first compound 0.125 µg/mL | – | – | – | 0.0269 | 0.0127 | 0.018
S. aureus DSM 20231 [2], first compound 0.06 µg/mL | 0.628 | 0.559 | 0.524 | – | – | –
S. aureus DSM 20231 [2], first compound 0.12 µg/mL | 0.441 | 0.379 | 0.37 | – | – | –

Conditions | Bliss interaction score
B. subtilis 168 [7] | 0.0214
S. aureus DSM 20231 [6] | 0.0441
S. aureus Newman [8] | -0.0642
S. pneumoniae D39V [5] | 0.0911

O=C1CN(/N=C/c2ccc([N+](=O)[O-])o2)C(=O)N1 [Nitrofurantoin]
Conditions | MIC [µg/mL]
B. subtilis 168 [11] | 16 (≈ 67.2 µM)
S. aureus DSM 20231 [10] | 8.89 (≈ 37.3 µM)
S. aureus Newman [12] | 10 (≈ 42 µM)
S. pneumoniae D39V [9] | 16 (≈ 67.2 µM)

S. pneumoniae D39V [1]
Conditions | fitness
2 µg/mL | 0.941
4 µg/mL | 0.888
8 µg/mL | 0.724

C/C(=C\C(=O)OCCCCCCCCC(=O)O)C[C@@H]1OC[C@H](C[C@@H]2O[C@H]2[C@@H](C)[C@H](C)O)[C@@H](O)[C@H]1O [Pseudomonic acid]
Conditions | MIC [µg/mL]
S. pneumoniae D39V [9] | 0.25 (≈ 0.499 µM)

S. pneumoniae D39V [1]
Conditions | fitness
0.03 µg/mL | 0.971
0.06 µg/mL | 0.822
0.12 µg/mL | 0.443

CCCCCCCCCC(=O)N[C@H]1[C@H](Oc2c3cc4cc2Oc2ccc(cc2Cl)[C@@H](O[C@@H]2O[C@H](CO)[C@@H](O)[C@H](O)[C@H]2NC(C)=O)[C@@H]2NC(=O)[C@H](NC(=O)[C@@H]4NC(=O)[C@H]4NC(=O)[C@@H](Cc5ccc(c(Cl)c5)O3)NC(=O)[C@H](N)c3ccc(O)c(c3)Oc3cc(O)cc4c3)c3ccc(O)c(c3)-c3c(O[C@H]4O[C@H](CO)[C@@H](O)[C@H](O)[C@@H]4O)cc(O)cc3[C@@H](C(=O)O)NC2=O)O[C@H](CO)[C@@H](O)[C@@H]1O [Teicoplanin]
main component drawn
Conditions | MIC [µg/mL]
S. aureus DSM 20231 [10] | 0.7 (≈ 0.372 µM)
S. aureus Newman [12] | 0.7 (≈ 0.372 µM)
S. pneumoniae D39V [9] | 0.062 (≈ 0.033 µM)

fitness, main component drawn
Conditions | 0.1562 µg/mL | 0.3125 µg/mL | 0.625 µg/mL | 1.25 µg/mL
S. aureus DSM 20231 [2] | ≥ 1 | ≥ 1 | ≥ 1 | ≥ 1
S. aureus Newman [4] | ≥ 1 | ≥ 1 | ≥ 1 | –

COc1cc(Cc2cnc(N)nc2N)cc(OC)c1OC [Trimethoprim]
Conditions | MIC [µg/mL]
B. subtilis 168 [11] | 2.5 (≈ 8.61 µM)
S. pneumoniae D39V [9] | 4 (≈ 13.8 µM)

fitness
Conditions | 0.125 µg/mL | 0.25 µg/mL | 0.5 µg/mL | 1 µg/mL | 2 µg/mL
B. subtilis 168 [3] | 0.623 | 0.478 | 0.45 | 0.334 | 0.31
S. aureus DSM 20231 [2] | 0.8 | 0.662 | 0.143 | – | –
S. aureus Newman [4] | 0.857 | 0.725 | 0.248 | – | –
S. pneumoniae D39V [1] | – | – | 0.924 | 0.658 | 0.306

CN[C@H](CC(C)C)C(=O)N[C@H]1C(=O)N[C@@H](CC(N)=O)C(=O)N[C@H]2C(=O)N[C@H]3C(=O)N[C@H](C(=O)N[C@H](C(=O)O)c4cc(O)cc(O)c4-c4cc3ccc4O)[C@H](O)c3ccc(c(Cl)c3)Oc3cc2cc(c3O[C@@H]2O[C@H](CO)[C@@H](O)[C@H](O)[C@H]2O[C@H]2C[C@](C)(N)[C@H](O)[C@H](C)O2)Oc2ccc(cc2Cl)[C@H]1O [Vancomycin]
Conditions | MIC [µg/mL]
B. subtilis 168 [11] | 0.375 (≈ 0.259 µM)
S. pneumoniae D39V [9] | 0.3 (≈ 0.207 µM)

Conditions | fitness
B. subtilis 168 [3], 0.0468 µg/mL | 0.997
B. subtilis 168 [3], 0.0935 µg/mL | 0.924
B. subtilis 168 [3], 0.0938 µg/mL | 0.853
B. subtilis 168 [3], 0.187 µg/mL | 0.0481
B. subtilis 168 [3], 0.1875 µg/mL | 0.169
B. subtilis 168 [3], 0.375 µg/mL | 0.0404
S. aureus DSM 20231 [2], 0.1875 µg/mL | ≥ 1
S. aureus DSM 20231 [2], 0.375 µg/mL | ≥ 1
S. aureus DSM 20231 [2], 0.5 µg/mL | 0.981
S. aureus DSM 20231 [2], 0.75 µg/mL | ≥ 1
S. aureus DSM 20231 [2], 1 µg/mL | 0.977
S. aureus DSM 20231 [2], 2 µg/mL | 0.992
S. aureus Newman [4], 0.1875 µg/mL | ≥ 1
S. aureus Newman [4], 0.375 µg/mL | 0.99
S. aureus Newman [4], 0.75 µg/mL | 0.999
S. pneumoniae D39V [1], 0.125 µg/mL | 0.97
S. pneumoniae D39V [1], 0.25 µg/mL | 0.489
S. pneumoniae D39V [1], 0.5 µg/mL | 0.159
